Results as given in publication PMC10402201, “CYP5122A1 encodes an essential sterol C4-methyl oxidase in Leishmania donovani and determines the antileishmanial activity of antifungal azoles” (Research Square, 2023).

Experiments:
CYP51 = target: T1, CYP51 (Leishmania donovani, UniProt A0A3S7WRS7); assay: UV-Vis difference spectra (type II binding), plus BFC inhibition assay
T1 construct: gene LdCL_110017000; truncated form of XP_003859085.1 without the first 31 amino acids (transmembrane domain), N-terminal solubility tag, C-terminal His-tag

CYP5122A1 = target: T2, CYP5122A1 (Leishmania donovani, UniProt A0A3S7X0B6); assay: as above
T2 construct: gene LdCL_270005800; truncated form of XP_003861867.1 without the first 60 amino acids (transmembrane domain), N-terminal solubility tag, C-terminal His-tag
T2 sequence (A0A3S7X0B6 61-592): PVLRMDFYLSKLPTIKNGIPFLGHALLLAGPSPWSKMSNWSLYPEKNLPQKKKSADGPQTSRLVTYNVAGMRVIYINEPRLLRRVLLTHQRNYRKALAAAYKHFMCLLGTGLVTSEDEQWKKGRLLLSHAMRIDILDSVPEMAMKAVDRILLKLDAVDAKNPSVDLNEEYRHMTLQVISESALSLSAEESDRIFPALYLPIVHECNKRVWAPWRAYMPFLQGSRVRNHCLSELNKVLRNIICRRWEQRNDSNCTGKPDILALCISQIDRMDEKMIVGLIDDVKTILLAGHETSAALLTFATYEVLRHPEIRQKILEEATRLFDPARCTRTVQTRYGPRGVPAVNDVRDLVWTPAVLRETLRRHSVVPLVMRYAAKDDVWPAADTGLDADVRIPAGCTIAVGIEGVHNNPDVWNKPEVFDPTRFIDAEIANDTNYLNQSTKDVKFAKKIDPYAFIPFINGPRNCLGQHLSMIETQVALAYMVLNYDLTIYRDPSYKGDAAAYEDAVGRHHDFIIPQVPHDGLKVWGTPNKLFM

T1 sequence (A0A3S7WRS7 32-480): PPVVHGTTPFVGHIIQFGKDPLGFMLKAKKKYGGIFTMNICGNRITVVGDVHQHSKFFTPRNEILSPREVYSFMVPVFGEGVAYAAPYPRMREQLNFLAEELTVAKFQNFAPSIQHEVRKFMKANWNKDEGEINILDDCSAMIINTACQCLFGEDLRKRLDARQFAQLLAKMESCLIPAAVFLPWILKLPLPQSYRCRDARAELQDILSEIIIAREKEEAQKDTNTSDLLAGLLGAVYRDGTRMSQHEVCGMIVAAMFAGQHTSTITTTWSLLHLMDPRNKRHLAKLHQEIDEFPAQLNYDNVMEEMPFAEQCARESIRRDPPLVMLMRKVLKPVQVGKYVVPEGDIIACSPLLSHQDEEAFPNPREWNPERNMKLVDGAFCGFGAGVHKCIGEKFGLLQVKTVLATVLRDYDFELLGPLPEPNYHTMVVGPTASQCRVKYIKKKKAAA

Row | Compound | UV-Vis difference spectra (type II binding), plus BFC inhibition assay (CYP51) | UV-Vis difference spectra (type II binding), plus BFC inhibition assay (CYP5122A1)
1 | OC(Cn1cncn1)(Cn1cncn1)c1ccc(F)cc1F [fluconazole] | Fluconazole and voriconazole elicited type II binding with CYP51 but no specific responses with CYP5122A1 | 
2 | Clc1ccccc1C(c1ccccc1)(c1ccccc1)n1ccnc1 [clotrimazole] | Clotrimazole exhibited type II binding to both CYP51 and CYP5122A1 | Clotrimazole exhibited type II binding to both CYP51 and CYP5122A1
3 | C[C@@H](c1ncncc1F)[C@](O)(Cn1cncn1)c1ccc(F)cc1F [voriconazole] | Fluconazole and voriconazole elicited type II binding with CYP51 but no specific responses with CYP5122A1 | 
